Assay results: patent publication US20070078373A1, “PULSATILE DELIVERY OF GONADOTROPIN-RELEASING HORMONE FROM A PRE-LOADED INTEGRATED ELECTROTRANSPORT PATCH” (Vyteris, Inc., priority 2005, published 2007)
Structures can show the parent of a compound that is named as a salt.

Experiments:
in vivo = experiment: in vivo; design: species or system Yorkshire pigs; conditions: pig, sc
Protocol: (§1) Six prepubescent female Yorkshire pigs were used for this Example. A crossover design was used whereby each animal received both subcutaneous (SC) and iontophoretic treatments. Subcutaneous and iontophoresis experiments were spaced two weeks apart to meet acceptable animal blood draw limits. The subcutaneous injection experiments were performed first in the sequence. During the two week study the animal weights ranged from 15-32 kg.
The subcutaneous dosing solutions of concentration 200 μg/mL and 400 μg/mL, were prepared in pH 5.0 water (pH of maximum stability), Pigs 1 and 2 received 50 μl of 400 μg/mL, solution, while pigs 3-6 received 100 μl of 200 μg/mL, solution for each of the 5 doses.
(§2) All animals were placed in a sling under general propofol anesthesia and jugular, ear vein and arterial catheters placed percutaneously. For subcutaneous injection studies, a venous catheter was placed against the lower abdominal wall of the animal and 20 μg of drug was injected at 90-min intervals (total 5 dosing cycles). Each drug injection was followed by saline flush. The subcutaneous injection study in each animal was followed by iontophoresis administration in the same animal two weeks later. The iontophoresis experiments also involved five dosing cycles at 90-minute intervals. The drug loaded patches were placed on the back of the animal just off the midline section.
(§3) Blood samples were drawn from the jugular catheter into pre-chilled 3 mL vacutainer tubes using the following protocol. The tubes contained EDTA (1 mg/mL of blood) and Aprotinin (500 KIU/mL, of blood). A 2 mL, flush volume of blood was drawn followed by a 3 mL sample. The blood samples were withdrawn as outlined in Table G below. The tubes were centrifuged within 15 min of blood collection at 1600 rpm for 15 min at 4° C. The separated plasma was split into two (approximately equal volume) 2 mL tubes and frozen on dry ice. Samples were stored at −70° C. until shipment. The samples were analyzed using an I^125 radio labeled immnunoassay.

[1] = Pulsatile transdermal iontophoresis of GnRH in pigs, plasma PK (Example 1); format: in vivo, Yorkshire pigs; conditions: for plasma concentrations: condition #2 (2 mg/mL patch)
Protocol: as §1
The animal hair were clipped the night before the experiment. Prior to applying patches, a skin site free of obvious cuts and scrapes was selected. The selected skin site was wiped clean with warm water and an alcohol-loaded gauze pad and patted dry.
Iontophoretic hydrogel patches prepared according to Patch Fabrication Platform I (5 cm^2 active area) were used in these studies. The patches were loaded with GnRH (HCl) solution to provide final concentration of either 10 mg/mL, GnRH (HC 1) or 2 mg/mL GnRH (HCl) in the patch. The pH of the gel surface was from about 5 to about 5.5.
as §2
A laboratory controller was used as a constant current source. The controller is a battery operated electrotransport controller and delivers a preprogrammed current density profile for experimental studies. In addition, the controller measures the voltage across and the current through an electrotransport patch during drug delivery. The accuracy of the delivered current is ±1% of full-scale. The controller has a maximum voltage of 35 V and can take readings once per second for up to an hour. The accuracy of the recorded current is ±1% of full-scale. The accuracy of the recorded voltage is 0.8 V Max. There are no moving parts on the controller. Infrared transmission of the delivery profile and data retrieval to a computer ensures there are no disturbances during the treatment of a subject.
Example 1 utilized a current delivery profile comprising five cycles of eight minute pulses each having a current of 1.2 mA, with rest times of 90 minutes between pulses.
as §3
All experimental animals were allowed to recover from anesthesia after sutaneous treatment. The jugular catheter was left over night and removed after 24 hour blood draw was complete. Immediately following the 24 hour iontophoresis blood draw, animals were euthanized. Animal 1 died seven days after subcutaneous treatment. Animals 2, 3, and 4 received iontophoresis under condition #1 and animals 5 and 6 received iontophoresis under condition #2.

[2] = design: species or system Yorkshire pigs; conditions: pig, in vivo
Protocol: Three prepubescent female Yorkshire pigs (numbered 13-15) were used in this Example. Each animal received one iontophoretic treatment for eight 90 minute cycles and a ninth cycle with subcutaneous (“SC”) dosing for comparison. The ionotophoretic devices were prepared according to Patch Fabrication Platform I (5 cm^2 active area). The patches were loaded with GnRH (HCl) solution to provide final concentration of 25 mg/mL, GnRH. The pH of the gel surface was measured to be 5.0±0.5. The patches were stored at 5° C. at all times except during travel to the study site. The SC dosing solution used in animal 13 was prepared 4 days before use and stored at room temperature (“RT”). The SC dosing solution used in animal 14 was prepared 6 days before use and stored mainly at RT. The SC dosing solution used in animal 15 was prepared 1 day before use and stored at RT. During the study, the animal weights ranged from approximately 15-30 kg. […] The animals were prepared as described in Example 1. The drug loaded patches were placed on the back of the animal just off the midline section. One patch each was used throughout the eight delivery pulses. The controller, as described in Example 1, was used as a constant current source. Blood samples were drawn from a jugular catheter at times as disclosed in Table P, and treated according to the analytical protocol set forth in Example 1.

[3] = design: species or system Yorkshire pigs; conditions: pig, in vivo; remark: listed apart in the source
Protocol: Six prepubescent female Yorkshire pigs (numbered from 7-12) were used in this set of studies. Each animal received two iontophoretic treatments. A first set of three animals received 50 mg/mL, drug concentration using five 8-min pulses (condition #3) and a week later received the same concentration using eight 5-min pulses (condition #5). A second set of three animals received 25 mg/mL drug concentration using five 8-min pulses (condition #4) and a week later received the same concentration using eight 5-min pulses (condition #6). The five 8-min pulse experiments were performed first in the sequence. During the span of the study the animal weights ranged from approximately 18-33 kg.
The animals were prepared as described in Example 1. Inotophoretic hydrogel patches prepared according to Patch Fabrication Platform I (5 cm^2 active area) were used in these studies. The patches were loaded with GnRH (HCl) solution to provide final concentration of either 25 mg/mL GnRH (HC l) or 50 mg/mL GnRH (HCl) in the patch. The pH of the gel surface was measured to be 5.0±0.5. The patches were placed on the back of the animal just off the midline section. The controller, as described in Example 1, was used. One patch each was used throughout the entire delivery period for conditions 3-5. For condition #6, the patch was replaced with a fresh patch after pulse 5. The experimental conditions are summarized in Table K. Example 2 utilized current delivery profiles comprising five cycles of eight minute pulses each having a current of 1.2 mA for conditions #3 and #4; and eight cycles of five minute pulses each having a current of 1.2 mA for conditions #5 and #6. Each profile had rest times of 90 minutes between pulses.
Blood samples were drawn from a jugular catheter at times as disclosed in Table L, and treated according to the protocol set forth in Example 1.

[4] = condition #1, animal weight normalized, pulses 1-5

## CC(C)C[C@H](NC(=O)CNC(=O)[C@H](Cc1ccc(O)cc1)NC(=O)[C@H](CO)NC(=O)[C@H](Cc1c[nH]c2ccccc12)NC(=O)[C@H](Cc1cnc[nH]1)NC(=O)[C@@H]1CCC(=O)N1)C(=O)N[C@@H](CCCNC(=N)N)C(=O)N1CCC[C@H]1C(=O)NCC(N)=O [GnRH, gonadorelin hydrochloride]
In vivo; female, Yorkshire, 20 ug, Subcut. AUC
  AUC: 0.742 ng·h/mL
In vivo; female, Yorkshire, Subcut Tmax
  Tmax: 19 min
In vivo; 20 ug
  Mean CV (for AUC) for subcutaneous drug delivery: 18%
  Mean CV (for Cmax) for subcutaneous drug delivery: 20%
[1]; condition #1, all pulses
  ratio of the mean CV for AUC between iontophoretic and subcutaneous drug delivery: 1.9
  ratio of the mean CV for Cmax between iontophoretic and subcutaneous drug delivery: 2.0
[1]; [4]
  Mean coefficient of variation (for AUC) for iontophoretic drug delivery: 35%
  mean CV (for Cmax) for iontophoretic drug delivery: 40%
[1]; condition #1, pulse 1 excluded
  mean CV (for AUC) for iontophoretic drug delivery: 15%
  mean CV (for Cmax) for iontophoretic drug delivery: 22%
  ratio of the mean CV for AUC between iontophoretic and subcutaneous drug delivery: 0.83
  ratio of the mean CV for Cmax between iontophoretic and subcutaneous drug delivery: 1.1
[1]; condition #1 vs subcutaneous 20 μg dose, animal weight normalized
  percent difference between iontophoresis and subcutaneous means, of the subcutaneous AUC: 47%
[1]; condition #1 vs subcutaneous, animal weight normalized
  percent difference between iontophoresis and subcutaneous Cmax means, of the subcutaneous mean Cmax: 32%
[1]; animal 5, first 3 pulses
  plasma concentrations: below assay limit of detection
[1]; animal 6, first pulse
  plasma concentrations: below assay limit of detection
[1]; condition #2 vs condition #1
  Mean AUC for pulses 4 and 5, fold less than iontophoresis condition #1: 5.6 fold
  Mean Cmax for pulses 4 and 5, fold less than iontophoresis condition #1: 4.6 fold
[1]; female, Yorkshire, pig, in vivo, Tmax
  Tmax: 20 min
[2]
  Tmax coefficient of variation over pulses 2-8: 9%
[3]
  Mean AUC, less than for 10 mg/mL drug concentration and 8-min pulses (Example 1): 25%
  Mean Cmax, less than for 10 mg/mL drug concentration and 8-min pulses (Example 1): 25%
  drug delivery, less compared with 10 mg/mL drug concentration and 8-minute pulses: 25%
